Structures are written as SMILES.

This assay deals with T1, cis-aconitate decarboxylase (CAD) (Aspergillus terreus, UniProt Q0C8L3).
T1 construct: Partial Purification of CAD from Itaconic Acid Producing A. Terreus; endogenous in cells; host or cells: Aspergillus terreus NRRL 1960 mycelium (cell free extract)
The experiment in a line: Effect of the addition of stabilizing compounds on the CAD activity. The format is biochemical, Aspergillus terreus NRRL 1960. The note with it: * final concentration of 20 mM, PEG 20% w/v; for CAD activity after 48 h: stabilizer added to buffer; for Initial CAD Activity: stabilizer added to buffer of A. terreus cell free extract. On the procedure: The enzyme activity determination was essentially as described (Bentley et al., 1957 supra; Dwiarti et al., 2002, J Biosci Bioeng 94(1):29-33). 800 μl of 0.2 M sodium phosphate pH 6.5 was mixed with 100 μl 10 mM cis-aconitic acid and 100 μl protein solution and incubated for 20 till 60 min at 37° C. The reaction was stopped by the addition of 100 μl 12 M HCl. The amount of itaconic acid formed was determined by isocratic chromatography in 4 mM sulphuric acid on Bio-Rad Aminex HPX-87H column in a Dionex HPLC equipped with an UV detector at 215 nm. Calibration of the signal was accomplished by running a known amount of itaconic acid in a separate run. One unit (U) is one μmol of itaconic acid formed per minute. The same chromatographic assay was used to monitor the amount of itaconic acid formed in the broth of shake flasks or fermenter cultures as being indicative for cis-aconitate decarboxylase (CAD) induction. The protein concentration was measured according to Bradford with the Bio-Rad protein assay (Bradford, Anal Biochem 1976; 72:248-54).
Approximately 1 g of frozen mycelium was transferred to a Teflon vessel and grinded with a metal ball for one minute using a dismembrator (Braun-Melsungen, Germany). Multiple batches of the powdered mycelium were resuspended in 10 ml 0.2 M sodium phosphate buffer pH 6.5 containing 1 mM DTT and 1 mM EDTA and allowed to hydrate at 0° C. for thirty minutes while mixing and centrifuged at 15000 g for 30 minutes at 4° C. to obtain the CFE.
In the purification of CAD the inherent instability of the protein was noticed. […] To overcome this problem we adapted the purification method by the addition of potential stabilizers to the buffers (Table 2).

Where [1] appears, read: after 48 h relative to initial CAD activity.

T1 sequence (Q0C8L3 whole entry): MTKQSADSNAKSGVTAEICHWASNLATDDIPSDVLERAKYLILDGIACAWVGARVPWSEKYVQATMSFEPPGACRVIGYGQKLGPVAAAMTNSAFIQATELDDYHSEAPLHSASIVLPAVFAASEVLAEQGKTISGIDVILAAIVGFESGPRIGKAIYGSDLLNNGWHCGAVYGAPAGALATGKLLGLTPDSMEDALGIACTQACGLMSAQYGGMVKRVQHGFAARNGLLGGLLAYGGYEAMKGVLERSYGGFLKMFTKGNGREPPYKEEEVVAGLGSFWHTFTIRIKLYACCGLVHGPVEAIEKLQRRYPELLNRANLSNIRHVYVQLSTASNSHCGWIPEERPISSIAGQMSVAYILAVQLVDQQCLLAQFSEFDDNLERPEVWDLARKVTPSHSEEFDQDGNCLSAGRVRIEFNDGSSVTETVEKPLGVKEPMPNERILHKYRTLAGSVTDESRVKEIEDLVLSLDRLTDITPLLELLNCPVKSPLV

By remaining activity is commonly meant the share of the control activity or signal that is left under treatment. Low values mean little activity left, high ones much activity left. For `O=C1O[C@H]([C@@H](O)CO)C(O)=C1O` [Ascorbic Acid], the “CAD activity after 48 h” value came to 0.19 U/mL and the “Initial CAD Activity” value came to 1.36 U/mL. Further, the remaining activity at 20000 µM under setting [1] amounted to 14%.

For the compound `O=C(O)c1ccccc1` [Benzoate], the “CAD activity after 48 h” value turned out to be 0.43 U/mL and the “Initial CAD Activity” value is 1.36 U/mL. Moreover, the Remaining activity under setting [1] is 32%.

On to `O=S([O-])[O-].[Na+].[Na+]` [Na2SO3], for which the “CAD activity after 48 h” value is 1.30 U/mL and the “Initial CAD Activity” value stood at 1.48 U/mL. For the same compound, under setting [1], the Remaining activity is 88%.

Values taken from patent US20110099670A1, “[…] CODING FOR CIS-ACONITIC DECARBOXYLASE AND USE THEREOF” (priority 2008, published 2011).
